# From patent US8101180B2, “Anti-IGF-IR and/or anti-insulin/IGF-I hybrid receptors antibodies and uses thereof” (Pierre Fabre Medicament, priority 2002, dated 2012)
# Entries after “also recorded” stand apart in the source; their conditions may differ.
# What was measured:
# [1] = test system: noninfected Sf9 insect cells; test: FACS labeling of noninfected Sf9 insect cells; assay type: binding; details: FACScan
# Source text: In FIG. 4B, Sf9 cells uniquely expressing IGF-IR are labeled with αIR3 (2) or anti-IR(3), the peak (1) representing the single cells. In FIG. 4C, Sf9 cells uniquely expressing IR are labeled with an anti-IR (3) or αIR3 (2), the peak (1) representing the single cells.
# evaluating the supernatants of hybridomas positive in the two first screenings in terms of differential recognition of IGF-IR and of IR on insect cells infected with baculoviruses respectively expressing IGF-IR or IR,
# For the immunization stage, mice were injected twice, by the subcutaneous route, with 8 μg of recombinant IGF-IR. Three days before the fusion of the cells of the […] with the cells of the murine myeloma Sp2OAg14, the mice were stimulated by an intravenous injection of 3 μg of the recombinant receptor. Fourteen days after the fusion, the supernatants of hybridomas were screened by ELISA, on plates sensitized by recombinant IGF-IR. The hybridomas whose supernatants were found positive were conserved and amplified before being tested on the FACScan so as to verify that the antibodies produced were likewise capable of recognizing native IGF-IR. In order to do this, MCF-7 cells from an estrogen-dependent tumor of the breast overexpressing IGF-IR were incubated with each of the culture supernatants produced by the hybridomas selected in ELISA. […]
# MCF-7 cells [2] = test: IGF1-induced proliferation of MCF-7 cells (3H thymidine incorporation); assay type: cell-based, human; details: antibody 10 μg/ml; IGF-I 1 to 50 ng/ml
# Method: The cell proliferation is evaluated by following the incorporation of ^3H thymidine. The commercial antibody αIR3 is used as a positive control of the experiment.
# The cell proliferation is estimated by following on the β counter the incorporation of tritiated thymidine by the cells. The results are expressed as a proliferative index.
# MCF-7 tumor = MCF-7 tumor growth in nude mice (subcutaneous xenograft); assay type: in vivo; details: for inhibition of MCF-7 tumor growth in vivo, murine versus humanized antibody: 125 μg/dose twice a week i.p. (Example 36)
# Method: The in vivo selection was carried out in an established tumor model. In order to do this, nude mice received a subcutaneous implant of slow-release estrogen, indispensable for the taking of the tumor in a murine model. Twenty-four hours after implantation of the estrogens, 5·10^6 MCF-7 cells are grafted onto the right flank of the mouse subcutaneously. Five days after this cell graft, the tumors are measurable and batches of 6 mice are formed at random. The treatment of the mice is carried out twice per week, during 5 to 6 weeks, at the dose of 250 μg/dose/mouse. In the control group, the mice are treated in the same fashion with a murine control isotype. […] Another non exclusive hypothesis could be the recognition by these antibodies of the atypical IGF-IR as described in the paper of Siddle et al., (Siddle et al., 1994, Horn Res. 41(suppl. 2):56-65).
# The long-term use of tamoxifen is associated with a significant increase in the risk of endometrial cancer (Fisher et al., J. of National Cancer Institute, 86, 7:527-537, 1994; VIDAL 2000, 1975-1976) and of collateral recurrence of E2-independent cancer of the breast (Li C. I. et al., J. Natl. Cancer Inst., July 4, 93(13):1008-1013, 2001). […] In order to do this, 7·10^6 MCF-7 cells were implanted sc (subcutaneously) in nude mice, 24 hours after implantation in these same mice of a grain of estradiol with prolonged release (0.72 mg/tablet liberated over 60 days), indispensable for the establishment of any E2-dependent human tumor in this animal species. Five days after this implantation, the tumors are measured and groups of 6 mice are formed. […] The tamoxifen is administered daily for 4 weeks except at the weekend. […] A study was previously carried out in order to verify that the solvent alone is without influence on the tumor growth.
# To do this, 5·10^6 A549 cells were implanted subcutaneously in nude mice. Five days after this implantation, the tumors were measured and groups of 6 mice were formed. […] In the MCF-7 breast tumor model, a sustained-release oestradiol granule (0.72 mg/tablet released over 60 days) is implanted subcutaneously 24 hours before implantation of the cells. This granule is essential to the establishment of any E2-dependent human tumor in this animal species.
# DU145 tumor = test: DU145 androgen-independent prostate tumor xenograft; assay type: in vivo, nude mice; details: 250 μg/dose/mouse twice per week i.p.
# Method: (§1) In these 4 models, the treatment was carried out twice per week i.p. at a rate of 250 μg/dose/mouse.
# SK-ES-1 tumor = test: SK-ES-1 osteosarcoma xenograft; assay type: in vivo, nude mice; details: 250 μg/dose/mouse twice per week i.p.
# Method: as §1
# BxPC3 tumor = test: BxPC3 pancreatic cancer xenograft; assay type: in vivo, nude mice; details: 250 μg/dose/mouse twice per week i.p.
# Method: as §1
# MCF-7 cells [3] = test: Cell cycle of MCF-7 cells with IGF1; assay type: cell-based, human; details: MCF-7 cells, 24 hours
# Method: The inhibition of the cell growth observed in vitro on the line MCF-7 should be manifested by an effect on the cell cycle. In order to reply to this question, 4·10^5 cells are inoculated into 6-well plates. […] After incubation for 24 hours, the cells are recovered for the study of the cell cycle.
# IR = test: Immunoprecipitation of IR from R−/IR-A and R−/IR-B cell lysates; assay type: binding
# Source text: The used cells for this study are listed thereafter: • R+: R− fibroblasts stably transfected with the IGF-I receptor (IGF-IR) cDNA • R−/IR-A: R− fibroblasts stably transfected with the insulin receptor isoform A (IR-A) cDNA • R−/IR-B:R− fibroblasts stably transfected with the insulin receptor isoform B (IR-B) cDNA • R+/IR-A: R− fibroblasts stably co-transfected with the IGF-I and the insulin receptor isoform A cDNA and, therefore, expressing hybrid receptors A (Hybrid-RsA) • R+/IR-B: R− fibroblasts stably co-transfected with the IGF-I and the insulin receptor isoform B cDNA and, therefore, expressing hybrid receptors B (Hybrid-RsB)
# For the obtention of cellular lysat, cells were solubilized in RIPA buffer and 4 mg protein used for immunoprecipitation.
# Following immunoprecipitation, the pellet was resuspended in 2× sample buffer and subjected to SDS-PAGE (7.5% polyacrylamide).
# Filters were blotted as follows: Filters containing R+ lysates (and therefore only IGF-IR) with an anti-IGF-IR β-subunit (Santa Cruz). Filters containing lysates from all the remaining cells with an antibody anti-IR β-subunit (Santa Cruz).
# [4] = test system: A549 cells implanted intrapleurally; test: Orthotopic (intrapleural) A549 model, survival; details: 10^6 A549 cells intrapleural; Example 3b: 500 μg/mouse challenge then 250 μg twice per week
# Method: In order to evaluate our antibody in a model closer to reality, the A549 cells were implanted in an intrapleural location. […] In the study which was carried out, 10^6 A549 cells were injected intrapleurally into female nude mice. 7 days after implantation, the mice were divided into 2 batches of 22.
# In order to evaluate the antitumor activity of an antibody mixture directed respectively against IGF-IR and EGFR, 10^6 A549 cells (non-small cell lung cancer) were implanted in the intrapleural cavity of nude mice.
# For the combined therapy, antibodies were mixed prior to the injection.
# The T/C % are calculated according the following formula, [MEDIAN OF TREATED MICE/MEDIAN OF CONTROL MICE×100].
Substance,"MFI (Mean fluorescence intensity), Noninfected cells [1]",inhibition of IGF1-induced proliferation of MCF-7 cells (MCF-7 cells [2]),"inhibition of MCF-7 tumor growth in vivo, murine versus humanized antibody (MCF-7 tumor)",inhibition of MCF-7 tumor growth in vivo (MCF-7 tumor; 250 μg/dose/mouse twice per week i.p.),antitumor activity in DU145 model (DU145 tumor),antitumor activity in SKES-1 osteosarcoma model (SK-ES-1 tumor),antitumor activity in BxPC3 model (BxPC3 tumor),inhibition of IGF1-induced entry into the cell cycle (MCF-7 cells [3]),immunoprecipitation of IR (IR),survival of mice orthotopically implanted with A549 cells [4],"inhibition of MCF-7 tumor growth in vivo, murine versus humanized antibody (MCF-7 tumor; listed as 7H2HM)"
7C10: murine monoclonal anti-IGF-IR IgG1 secreted by the hybridoma deposited at the CNCM under the number I-2717,8.6,significantly inhibits the growth,significant inhibition of tumor growth,very significant inhibition of the tumor growth; also recorded: significantly inhibiting the growth; also recorded: significantly more efficacious than tamoxifen,significant activity,significant activity,significant activity,significant inhibition of the entry into the cycle,Neither 7C10 nor h7C10 appreciably immunoprecipitate IR,significant extension of survival; also recorded: comparable and a significant gain in survival,–
"h7C10: humanized 7C10 anti-IGF-IR antibody, isotype IgG1 (humanized 1 written 7H2HM)",–,perfectly preserved their properties of inhibiting the IGF1-induced growth,exactly the same intensity as that observed with its murine counterpart,–,–,–,–,significant inhibition of the entry into the cycle,Neither 7C10 nor h7C10 appreciably immunoprecipitate IR,–,perfectly comparable with the murine antibody 7C10
